≈ marks a conversion by molar mass, not a printed value. Where two headings read alike, the source gives them in different places.

Data set [1] in a line: Solid-state conversion of crystal forms on heating or humidity. It counts as physicochemical.
A short description of data set [2]: Approximate solubilities of Form I crystals of T-62 (solvent added until clear solution). As to conditions: RT. It counts as physicochemical. The procedure:
Solubilities for Form I crystals of T-62 may be estimated based on total solvent used to give a clear solution. A test solvent, either reagent or HPLC (high pressure liquid chromatography) grade, is added in measured aliquots, e.g., 200 or 500 μL, to an accurately weighed sample of T-62 (typically 50 to 90 mg). For some samples, sonication is applied between solvent additions to aid dissolution. Generally, solvent is added until a clear solution is obtained. Actual solubilities may be greater than those shown in Table 7 because of the volume of the solvent portions utilized or a slow rate of dissolution.

Data set [3] can be described thus: Moisture sorption/desorption analysis. It counts as physicochemical. The procedure:
Moisture sorption/desorption analyses may be performed on a VTI SGA-100 Vapor Sorption Analyzer, or a similar instrument. Sorption and desorption data are collected, e.g., over a range of 5 to 95% relative humidity (RH) at 10% RH intervals under a nitrogen purge. Samples need not to be dried prior to analysis. Equilibrium criteria used for analysis are, e.g., less than 0.01% weight change in 5 min, with a maximum equilibration time of 3 h if the weight criterion is not met. NaCl and PVP may be used as calibration standards.

A short description of data set [4]: Stability to mechanical grinding/milling (ball-milling, XRPD). It counts as physicochemical. As to conditions: XRPD analysis of the milled material. The source says: (§1) The crystal forms of T-62 are preferably substantially stable to grinding. Stability to grinding may be assessed by measurement of an appropriate physical property before and after grinding. Where the physical property remains substantially unchanged, substantial stability to grinding is indicated. Suitable physico-chemical properties for measurement include a melting point, a X-ray diffraction pattern, an infra red absorption spectrum and a Raman spectrum, particularly the X-ray diffraction pattern. For example, Form I crystal form of T-62 is stable to mechanical milling and cryogrinding as indicated by XRPD analyses of the milled and ground material, respectively.
Stability to mechanical grinding/milling may be tested, e.g., by employing a small stainless steel cylinder. The cylinder is charged with a weighted amount of a crystal form of T-62 and a stainless steel ball is added, the cylinder is capped and the unit is placed on a Retsch Mixer Mill (Type MM 200) for a total of 3 min at a frequency of 30/s (ball-milling).

A short description of data set [5]: Stability to cryogrinding (XRPD). It counts as physicochemical. As to conditions: XRPD analysis of the ground material.
Source text: as §1
Stability to cryogrinding may be tested, e.g., by employing a polycarbonate freezer mill tube. The tube is charged with a weighted amount of a crystal form of T-62 and a stainless steel rod is added, the tube is capped and the unit is shaken in a SPEX Certiprep 6750 Freezer Mill for a total of 0.6 min in liquid nitrogen at a rate of 10 Hz.

For the next data set, the target named is T1, adenosine A1 receptors (Homo sapiens, UniProt P30542).
T1 sequence (P30542 1-326): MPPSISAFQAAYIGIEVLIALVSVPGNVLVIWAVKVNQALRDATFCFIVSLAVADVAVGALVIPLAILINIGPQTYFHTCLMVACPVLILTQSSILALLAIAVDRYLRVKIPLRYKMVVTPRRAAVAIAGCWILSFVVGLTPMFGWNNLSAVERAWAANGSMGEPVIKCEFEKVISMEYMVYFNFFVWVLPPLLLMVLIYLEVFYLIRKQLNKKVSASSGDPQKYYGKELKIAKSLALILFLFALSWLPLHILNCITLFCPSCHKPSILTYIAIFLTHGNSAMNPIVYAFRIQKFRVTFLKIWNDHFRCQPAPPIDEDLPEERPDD
As to conditions: U.S. Pat. No. 6,248,774 and No. 6,489,356, cited from earlier work.

As to `Nc1sc2c(c1C(=O)c1ccc(Cl)cc1)CCCC2` [Form III, (2-amino-4,5,6,7-tetrahydrobenzo[b]thiophen-3-yl)(4-chlorophenyl)methanone], the “Crystal form conversion on heating” value in data set [1] (heating to about 104° C. under argon purge) is reported as “converted to the Form I crystal form”. The “Crystal form conversion under high humidity” value in data set [1] (high humidity, solvent is lost) is “converts to Form I crystal form”. In data set [1] (upon heating), the “Crystal form conversion upon heating” value was “converts to Form I crystals”.

For the molecule `Nc1sc2c(c1C(=O)c1ccc(Cl)cc1)CCCC2` [Form I, (2-amino-4,5,6,7-tetrahydrobenzo[b]thiophen-3-yl)(4-chlorophenyl)methanone], the solubility (in general, the concentration that dissolves in the medium under given conditions) in data set [2] (water) was “practically insoluble”; in data set [2] (aqueous with cosolvent or surfactant or cyclodextrin, thermodynamic from solid, ACN:H2O - 1:1, read-out: Solubility) it was 8.4 mg/mL (≈ 28.8 mM); in data set [2] (organic solvent or mixture, thermodynamic from solid, ACN, read-out: Solubility), 11.1 mg/mL (≈ 38 mM); in data set [2] (organic solvent or mixture, thermodynamic from solid, CHCl3, read-out: Solubility), 175 mg/mL (≈ 598 mM); in data set [2] (organic solvent or mixture, thermodynamic from solid, EtOAc, read-out: Solubility) it was 67.8 mg/mL (≈ 232 mM); in data set [2] (organic solvent or mixture, thermodynamic from solid, EtOH:H2O - 95:5, read-out: Solubility), 12.8 mg/mL (≈ 43.9 mM). The solubility in data set [2] (organic solvent or mixture, thermodynamic from solid, EtOH, read-out: Solubility) was determined as 16.6 mg/mL (≈ 56.9 mM); in data set [2] (organic solvent or mixture, thermodynamic from solid, IPA, read-out: Solubility), 13.1 mg/mL (≈ 44.9 mM); in data set [2] (organic solvent or mixture, thermodynamic from solid, MEK, read-out: Solubility), 132 mg/mL (≈ 453 mM); in data set [2] (organic solvent or mixture, thermodynamic from solid, MeOH:H2O - 95:5, read-out: Solubility), 8.7 mg/mL (≈ 29.8 mM); in data set [2] (organic solvent or mixture, thermodynamic from solid, MeOH, read-out: Solubility), 19.8 mg/mL (≈ 67.9 mM); in data set [2] (organic solvent or mixture, thermodynamic from solid, N,N-dimethylformamide (DMF), read-out: Solubility) it was 129 mg/mL (≈ 441 mM). In addition, the solubility in data set [2] (organic solvent or mixture, thermodynamic from solid, THF, read-out: Solubility) was 338 mg/mL (≈ 1160 mM); in data set [2] (organic solvent or mixture, thermodynamic from solid, acetone, read-out: Solubility) it was 59.8 mg/mL (≈ 205 mM); in data set [2] (organic solvent or mixture, thermodynamic from solid, cyclohexane, read-out: Solubility), 9.8 mg/mL (≈ 33.6 mM); in data set [2] (organic solvent or mixture, thermodynamic from solid, di-n-butyl ether, read-out: Solubility), 21.4 mg/mL (≈ 73.3 mM); in data set [2] (organic solvent or mixture, thermodynamic from solid, dichloromethane, read-out: Solubility) it was 85.3 mg/mL (≈ 292 mM); in data set [2] (organic solvent or mixture, thermodynamic from solid, diisopropyl ether, read-out: Solubility) it was 5.9 mg/mL (≈ 20.2 mM). Further, the solubility in data set [2] (organic solvent or mixture, thermodynamic from solid, dimethylsulfoxide (DMSO), read-out: Solubility) was determined as 183 mg/mL (≈ 626 mM); in data set [2] (organic solvent or mixture, thermodynamic from solid, dioxane, read-out: Solubility) it was 74.9 mg/mL (≈ 257 mM); in data set [2] (organic solvent or mixture, thermodynamic from solid, hexanes, read-out: Solubility) it was 5.6 mg/mL (≈ 19.2 mM); in data set [2] (organic solvent or mixture, thermodynamic from solid, nitromethane, read-out: Solubility), 12 mg/mL (≈ 41.1 mM); in data set [2] (organic solvent or mixture, thermodynamic from solid, octanol, read-out: Solubility) it was 19.7 mg/mL (≈ 67.5 mM); in data set [2] (organic solvent or mixture, thermodynamic from solid, toluene, read-out: Solubility), 45.7 mg/mL (≈ 157 mM). Further, the “Crystal form after moisture sorption/desorption analysis” value in data set [3] is listed as “remains the same”. Moreover, the “Weight gain or loss in moisture sorption/desorption analysis” value in data set [3] was “no significant weight gain or loss”. For the same molecule, the Hygroscopicity entry in data set [3] (moisture sorption/desorption analysis) is “non-hygroscopic”. Besides, the “Stability to mechanical milling” value in data set [4] was “stable”. The Stability to cryogrinding result in data set [5] is recorded as “stable”.

On to `Nc1sc2c(c1C(=O)c1ccc(Cl)cc1)CCCC2` [Form IV, (2-amino-4,5,6,7-tetrahydrobenzo[b]thiophen-3-yl)(4-chlorophenyl)methanone], for which the “Crystal form conversion on heating” value in data set [1] (heating for 2 min at 75° C. in a sealed capillary) is on record as “converted to the Form IV crystal form”.

For the molecule `Nc1sc2c(c1C(=O)c1ccc(Cl)cc1)CCCC2` [Form II, (2-amino-4,5,6,7-tetrahydrobenzo[b]thiophen-3-yl)(4-chlorophenyl)methanone], the “Weight gain in moisture sorption/desorption analysis” value in data set [3] (at 95% RH) was determined as 0.1%.

With `Nc1sc2c(c1C(=O)c1ccc(Cl)cc1)CCCC2` [Form T-62, (2-amino-4,5,6,7-tetrahydrobenzo[b]thiophen-3-yl)(4-chlorophenyl)methanone], on adenosine A1 receptors, the “Adverse side effects associated with administration of adenosine” value is reported as “devoid of the adverse side effects”. On adenosine A1 receptors (orally effective), the “Effect on inflammatory and neuropathic pain” value is “reduce inflammatory and neuropathic pain”.

The values above are taken from patent publication US20090023799A1, “CRYSTALS OF (2-AMINO-4,5,6,7-TETRAHYDROBENZO[b]THIEN-3-YL)(4-CHLOROPHENYL)METHANONE” (priority 2007, published 2009).
